{"source": "patent EP3269373A1", "about": "“LOW-DOSED ORAL DOSAGE FORM OF AN AKR1C3 INHIBITOR FOR TREATMENT OF DISEASES” (Bayer Pharma Aktiengesellschaft, priority 2016, dated 2018)", "key": {"AKR1C3": {"biological_target": "T1, AKR1C3 (Homo sapiens, UniProt P42330)", "T1 sequence (P42330 1-323)": "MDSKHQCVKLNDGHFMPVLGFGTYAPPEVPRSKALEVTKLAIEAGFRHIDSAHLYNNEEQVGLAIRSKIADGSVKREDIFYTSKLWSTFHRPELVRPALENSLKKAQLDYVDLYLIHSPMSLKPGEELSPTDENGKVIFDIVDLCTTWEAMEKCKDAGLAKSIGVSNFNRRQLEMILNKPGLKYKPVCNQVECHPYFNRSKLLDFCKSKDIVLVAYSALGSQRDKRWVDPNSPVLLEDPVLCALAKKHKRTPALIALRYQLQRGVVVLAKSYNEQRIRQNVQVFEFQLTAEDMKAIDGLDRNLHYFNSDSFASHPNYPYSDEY", "details": "as disclosed in WO 2013045407; cited from earlier work"}, "[1]": {"assay": "Risk assessment on reproductive and developmental toxicities (exposure ratios animal:human) combined with clinical studies", "excerpt": "According to that regulatory guidance, there is increased concern for reproductive or developmental toxicity in humans for relative exposure ratios (animal: human) that are <10 and decreased concern for exposure ratios >25."}, "[2]": {"assay": "Embryonic (embryo-fetal) development study in rabbits", "type": "in vivo", "details": "for NOAEL: female, po, pregnant rabbits, oral gavage once daily, Day 6 to Day 19 of gestation", "procedure": "However, the incidence of some foetal structural variations (= mild foetal structural abnormalities) was increased at the mid dose of 20 mg/kg and higher. […] Table 2: Preclinical safety margins\nThe control received the vehicle in the same manner. All F0-females were sacrificed on Day 29 of gestation and the following parameters were recorded after removal and examination of the ovaries and the uteri: Number of corpora lutea, number and state of implantation sites (i.e, live foetus, early and late interauterine deaths, dead fetuses). […] Dead fetuses were classified as those which appeared to have died shortly before necropsy. Live foetuses were euthanised by an intraperitoneal injection of sodium pentobarbitone. Individual foetal and placental weights were recorded and foetuses were examined for external abnormalities and sexed by external observation. All fetuses in each litter were examined for visceral abnormalities by microdissection, eviscerated and the carcasses processed and Alizarin Red S stained for skeletal examination. The intact heads of approximately one half of the fetuses in each litter were removed after the fetuses were killed and were processed in Bouin's fluid. The heads were then examined by the Wilson sectioning method. Foetal abnormalities were classified as malformations (rare and/or potentially lethal defects) and variations (commonly occurring non-lethal abnormalities). […] These variations were related to sternebra. […] This finding was not present in the background data. […] Thus, in summary, the NOAEL for maternal toxicity is considered to be 70 mg/kg. The NOAEL for developmental toxicity is regarded as 5 mg/kg due to the occurrence of foetal findings classified as variations at the dose of 20 mg/kg and higher."}, "[3]": {"details": "cited from earlier work"}, "[4]": {"assay": "Embryonic (embryo-fetal) development study in rats", "type": "in vivo", "details": "for NOAEL: female, rat, in vivo, po, pregnant rats, oral gavage once daily, Day 6 to Day 17 of gestation", "procedure": "The NOAEL for developmental toxicity in rats is consequently the mid dose of 17 mg/kg.\nThe control received the vehicle in the same manner. All F0-females were sacrificed on Day 21 of gestation and the following parameters were recorded after removal and examination of the ovaries and the uteri: Number of corpora lutea, number and state of implantation sites (i.e, live foetus, early and late interauterine deaths, dead fetuses). […] Dead fetuses were classified as those which appeared to have died shortly before necropsy. Live foetuses were euthanised by a subcutaneous injection of sodium pentobarbitone. Individual foetal and placental weights were recorded and foetuses were examined for external abnormalities and sexed by external observation. Afterwards, approximately one half of the foetuses in each litter were examined for visceral abnormalities by microdissection. They were then eviscerated and the carcasses processed and Alizarin Red S stained for skeletal examination. The remaining foetuses were fixed in Bouin's fluid and examined for visceral abnormalities by the Wilson sectioning method. Foetal abnormalities were classified as malformations (rare and/or potentially lethal defects) and variations (commonly occurring non-lethal abnormalities)."}, "[5]": {"assay": "Multiple dose study Part B in healthy premenopausal tubal-ligated women, 28 days (safety, plasma bilirubin)", "type": "in vivo", "details": "for Plasma bilirubin concentrations above the upper limit of normal (subjects): tablets", "description": "(§1) Plasma bilirubin levels were assessed prior to dosing and 1, 2, 6 and 14 days after drug administration. […] 30 mg (once daily), 90 mg (once daily) or 60 mg (twice daily) per 70 kg body weight for women of the AKR1C3 inhibitor over 14 days. Plasma bilirubin levels were assessed prior to dosing and 1, 2, 6, 10, 13, 15, 19 days after drug administration and at final examination. […] Plasma bilirubin levels were assessed prior to dosing and on cycle days 8, 12, 15, 22, 29, 33 after start of drug administration and at the follow up examinations.\n(§2) The study was performed as an ascending dose study after multiple oral doses of the AKR1C3 inhibitor or placebo in 27 healthy postmenopausal (PM) women, aged 45 to 68 years (Part A) and 18 healthy tubal-ligated (TL) women, aged 18 to 48 (Part B).\nThe study consists of two parts: Part A was performed in healthy postmenopausal women (randomized within each dose level and placebo-controlled), Part B in healthy premenopausal women with tubal-ligation (open label; intraindividual comparison to pre-treatment cycle) with 28 days treatment (i.e. approx. one menstrual cycle). The safety of 30 mg once daily, 90 mg once daily, 60 mg twice/day of the AKR1C3 inhibitor given over 14 days was assessed in postmenopausal women prior to exposing premenopausal women to the corresponding doses of 60 mg once daily, 60 mg twice/day over 28 days. • Part A and Part B were further divided into different periods: • Part A: screening, pre-dose, treatment period 1 with single dose administration, treatment period 2 with multiple dose administration on 14 consecutive days and follow-up. […] Three increasing dosages of the AKR1C3 inhibitor were tested: 30 mg once daily, 90 mg once daily and 60 mg twice daily. In addition, a lower dose 3 mg once daily was evaluated. Nine volunteers per dose level were included into the study; thereof, n = 7 women were randomly assigned to treatment with the respective dose and n = 2 to placebo treatment. The study drug was administered in a double-blind manner within one dose level, i.e. all volunteers of that dose level received the same number of tablets identical in appearance. • Part B: screening, pre-dose (pre-treatment cycle), treatment period with multiple dose administration on 28 consecutive days and follow-up."}, "[6]": {"assay": "Multiple dose study Part A in healthy postmenopausal women, 14 days (safety, plasma bilirubin)", "details": "for Plasma bilirubin concentrations above the upper limit of normal (subjects): tablets", "description": "as §1, §2\nThe study consists of two parts: Part A was performed in healthy postmenopausal women (randomized within each dose level and placebo-controlled), Part B in healthy premenopausal women with tubal-ligation (open label; intraindividual comparison to pre-treatment cycle) with 28 days treatment (i.e. approx. one menstrual cycle). The safety of 30 mg once daily, 90 mg once daily, 60 mg twice/day of the AKR1C3 inhibitor given over 14 days was assessed in postmenopausal women prior to exposing premenopausal women to the corresponding doses of 60 mg once daily, 60 mg twice/day over 28 days. • Part A and Part B were further divided into different periods: • Part A: screening, pre-dose, treatment period 1 with single dose administration, treatment period 2 with multiple dose administration on 14 consecutive days and follow-up. A wash-out period between treatment period 1 (administration day) and treatment period 2 (first administration) of at least 14 days and not more than 28 days was necessary. Women received the study medication in a fasted state in period 1 (single dose) as well as on day 14 of period 2 (multiple dose). On day 1 of period 2 the study medication was given after breakfast to evaluate the food effect. Three increasing dosages of the AKR1C3 inhibitor were tested: 30 mg once daily, 90 mg once daily and 60 mg twice daily. In addition, a lower dose 3 mg once daily was evaluated. Nine volunteers per dose level were included into the study; thereof, n = 7 women were randomly assigned to treatment with the respective dose and n = 2 to placebo treatment. The study drug was administered in a double-blind manner within one dose level, i.e. all volunteers of that dose level received the same number of tablets identical in appearance. • Part B: screening, pre-dose (pre-treatment cycle), treatment period with multiple dose administration on 28 consecutive days and follow-up. In the pre-dose period, hormonal changes during a menstrual cycle including evidence of ovulation were evaluated. Study drug administration started on day 4 of the menstrual bleeding after end of the pre-treatment cycle, the study drug was then be taken on 28 consecutive days, independent of further menstrual bleedings. The pre-treatment cycle can be separated by up to 2 menstrual cycles from the treatment period.\nTotal bilirubin concentrations were monitored throughout this study.Bilirubin was measured employing a standard laboratory kit. The tests were performed according to the instructions as provided by the manufacturer (Beckman coulter kit AU680)."}, "[7]": {"assay": "Single dose study in healthy postmenopausal women (safety, plasma bilirubin)", "type": "in vivo", "procedure": "Single center, randomized, placebo-controlled, double-blind and parallel group study. For the 30 mg group only, a one sequence cross-over design was applied to estimate the relative bioavailability of a liquid versus a solid formulation.\nIn this study the AKR1C3 inhibitor was administered as a single oral dose. Eight volunteers per treatment group were included. Two volunteers per treatment group were allocated to placebo in a randomized, double-blind fashion in order to assess non-drug related factors in the safety evaluation. To ensure that 8 subjects were treated, during the pre-dose phase at least 1 backup subject had to undergo all necessary measurements to compensate for the risk that a person had to be excluded immediately before dosing due to safety concerns.\nForty-six (46, 76.7%) out of 60 treated subjects were treated with the AKR1C3 inhibitor (6 subjects per group at dose levels 1 mg, 3 mg, 10 mg, 30 mg, 120 mg, 240 mg; 5 subjects per group at 60 mg and 90 mg) and 14 subjects (23.3%) received placebo (2 subjects each in the 1 mg, 3 mg, 30 mg, 60 mg, 120 mg and 240 mg groups, and 1 subject each in the 10 mg and 90 mg groups). All 60 treated subjects (100%) completed the study and were included in the statistical analyses of safety (SAF: N=60). One out of 60 treated subjects was not valid for the analysis of pharmacodynamics due to vomiting before two times tmax (PDS: N=59). This same subject was also excluded from the PK analysis of the 46 verum-treated subjects, and all 14 placebo-treated subjects were not valid for the analysis of PK (PKS: N=45).\nBilirubin was measured employing a standard laboratory kit."}}}
{"compound": "CN(CCC(=O)O)C(=O)c1ccc2c(c1)CC[C@@H]1[C@@H]2CC[C@]2(C)C(c3cncc(F)c3)=CC[C@@H]12", "note": "[AKR1C3 inhibitor, N-{[17-(5-Fluoropyridin-3-yl)estra-1,3,5(10),16-tetraen-3-yl]carbonyl}-N-methyl-β-alanine]", "values": [{"measurement": "AKR1C3 inhibition", "setting": "AKR1C3", "result": "potent"}, {"measurement": "dose of decreased concern for reproductive or developmental toxicity in humans", "setting": "[1]", "result": "≤ 3", "unit": "mg daily dose"}, {"measurement": "dose of increased concern for reproductive or developmental toxicity in humans", "setting": "[1]", "result": "> 15", "unit": "mg daily dose"}, {"measurement": "NOAEL", "setting": "[2]; rabbit, in vivo, doses 0, 5, 20, 70 mg/kg, read-out: NOAEL for dev. toxicity", "result": 5, "unit": "mg/kg"}, {"measurement": "NOAEL", "setting": "[2]; rabbit, in vivo, read-out: NOAEL for maternal toxicity", "result": 70, "unit": "mg/kg"}, {"measurement": "occurrence of sternebra with increased ossification", "setting": "[2]; rabbit, in vivo, 5 mg/kg", "result": "very low incidence"}, {"measurement": "incidence of some foetal structural variations", "setting": "[2]; rabbit, in vivo, 20 mg/kg", "result": "increased"}, {"measurement": "incidence of a discoloured thymus in fetuses", "setting": "[2]; rabbit, in vivo, 70 mg/kg", "result": "slightly higher incidence"}, {"measurement": "higher systemic exposure (AUCunbound) at NOAEL than expected clinical exposure", "setting": "[2]; rabbits at 5 mg/kg vs once daily 3 mg/day in humans", "result": "~17", "unit": "fold"}, {"measurement": "higher systemic exposure (AUCunbound) at NOAEL than expected clinical exposure", "setting": "[2]; rabbits at 5 mg/kg vs twice daily 60 mg/day in humans", "result": "approximately 0.3 fold"}, {"measurement": "lesion load", "setting": "[3]; 0.2 mg/kg and 0.8 mg/kg, given daily, compared to the vehicle group", "result": "reduction in lesion load"}, {"measurement": "lesions on the bladder and on/in the uterus", "setting": "[3]; 30 mg/kg daily, compared with the vehicle group (WO 2013045407)", "result": "hardly any lesions could be found"}, {"measurement": "incidence of fetal visceral and skeletal variations", "setting": "[4]; 60 mg/kg, compared to the concurrent or historical control", "result": "higher incidence"}, {"measurement": "NOAEL", "setting": "[4]; doses 0, 5, 17, 60 mg/kg, read-out: NOAEL for dev. toxicity", "result": 17, "unit": "mg/kg"}, {"measurement": "NOAEL", "setting": "[4]; read-out: NOAEL for maternal toxicity", "result": 60, "unit": "mg/kg"}, {"measurement": "incidence of malformations", "setting": "[4]; high dose 60 mg/kg, from eight dams, out of a total of 198 foetuses (control 1 foetus out of 211)", "result": 12, "unit": "foetuses"}, {"measurement": "higher systemic exposure (AUCunbound) at NOAEL than expected clinical exposure", "setting": "[4]; rats at 17 mg/kg vs once daily 3 mg/day in humans", "result": "~122", "unit": "fold"}, {"measurement": "higher systemic exposure (AUCunbound) at NOAEL than expected clinical exposure", "setting": "[4]; rats at 17 mg/kg vs once daily 30 mg/day in humans", "result": "~15", "unit": "fold"}, {"measurement": "higher systemic exposure (AUCunbound) at NOAEL than expected clinical exposure", "setting": "[4]; rats at 17 mg/kg vs twice daily 60 mg/day in humans", "result": "approximately 2 fold"}, {"measurement": "Plasma bilirubin concentrations above the upper limit of normal (subjects)", "setting": "[5]; 60 mg once daily over 28 days", "result": "1 of 9"}, {"measurement": "changes in plasma bilirubin", "setting": "[5]; 60 mg once daily, premenopausal women, 4 weeks of treatment", "result": "increases in plasma bilirubin were observed in a small fraction of subjects"}, {"measurement": "Plasma bilirubin concentrations above the upper limit of normal (subjects)", "setting": "[5]; 60 mg twice daily over 28 days", "result": "2 of 9"}, {"measurement": "changes in plasma bilirubin", "setting": "[5]; 60 mg twice daily, 28 days", "result": "increase in plasma bilirubin was observed in a significant fraction of subjects"}, {"measurement": "Plasma bilirubin concentrations above the upper limit of normal (subjects)", "setting": "[6]; 60 mg twice daily over 14 days", "result": "5 of 7"}, {"measurement": "changes in plasma bilirubin", "setting": "[6]; 60 mg twice daily, 14 days", "result": "increase in plasma bilirubin was observed in a significant fraction of subjects"}, {"measurement": "Plasma bilirubin concentrations above the upper limit of normal (subjects)", "setting": "[6]; 90 mg once daily over 14 days", "result": "1 of 7"}, {"measurement": "changes in plasma bilirubin", "setting": "[6]; 90 mg once daily, postmenopausal women, 2 weeks of treatment", "result": "increases in plasma bilirubin were observed in a small fraction of subjects"}, {"measurement": "well tolerated up to a dose", "setting": "[6]; multiple dosing, women", "result": "≤ 60", "unit": "mg twice daily"}, {"measurement": "changes in plasma bilirubin", "setting": "[6]; up to 30 mg once daily / 70 kg body weight, single and repeat dosing up to 14 days", "result": "no changes in plasma bilirubin were observed"}, {"measurement": "drug-related TEAE headache", "setting": "[7]; female, human, in vivo", "result": 21.7, "unit": "%"}, {"measurement": "drug-related TEAE nausea", "setting": "[7]; female, human, in vivo", "result": 15.2, "unit": "%"}, {"measurement": "drug-related TEAE vomiting", "setting": "[7]; female, human, in vivo", "result": 13.0, "unit": "%"}, {"measurement": "Serious treatment-emergent adverse events (TEAEs)", "setting": "[7]; in vivo", "result": "not reported"}, {"measurement": "indication for hemolysis", "setting": "[7]; in vivo", "result": "no indication for hemolysis"}, {"measurement": "signs of drug-induced liver injury (DILI)", "setting": "[7]; in vivo", "result": "no signs of drug-induced liver injury (DILI) have been detected"}, {"measurement": "maximum tolerated dose", "setting": "[7]; single dose", "result": 120, "unit": "mg"}, {"measurement": "well tolerated up to a single dose", "setting": "[7]; single oral dose", "result": "≤ 120", "unit": "mg"}]}
